Laboratory results as given in publication PMC6792352, “Limited Chemical Structural Diversity Found to Modulate Thyroid Hormone Receptor in the Tox21 Chemical Library” (Environmental Health Perspectives, 2019).
Counter-ions that a name gives are not always drawn.

Assay: in vitro
Conditions: rat, gh3-tre-luc cells, AC50 (uM) modified / 1000

Row | SMILES | CC50 at 24 h [µM]
1 | CC(C)(C)N(NC(=O)c1ccc(Cl)cc1)C(=O)c1ccccc1 [Halofenozide] | 4.99
2 | CNC(=O)[C@H]1O[C@@H](n2cnc3c(NCc4cc(Cl)ccc4OCc4cc(C)no4)ncnc32)[C@H](O)[C@@H]1N [CP-608039] | > 90
3 | Oc1cc(Cl)c(Cl)c(Cl)c1 [3,4,5-Trichlorophenol] | 29.9
4 | CCOC(=O)/C=C\C(=O)OCC [Diethyl maleate] | > 90
5 | CC(C)CCC[C@@H](C)[C@H]1CC[C@H]2[C@@H]3CC=C4C[C@@H](O)CC[C@]4(C)[C@H]3CC[C@]12C [Cholesterol] | > 50
6 | CO[C@]12CC[C@@]3(C[C@@H]1[C@](C)(O)C(C)(C)C)[C@H]1Cc4ccc(O)c5c4[C@@]3(CCN1CC1CC1)[C@H]2O5 [Buprenorphine hydrochloride] | 23.1
7 | CCOC(C)OCC [Acetal] | > 90
8 | CCN(CC)CCc1nc(-c2ccccc2)no1 [Oxalamine citrate] | > 20
9 | CC/C=C\C/C=C\C/C=C\C/C=C\C/C=C\CCCC(=O)O [Eicosapentaenoic acid] | > 50
10 | CCCCC(=O)Cl [Valeryl chloride] | > 90
11 | [2H]C([2H])([2H])[C@H](N)Cc1ccccc1 [D-Amphetamine-d3 hemisulfate] | > 50
12 | CC(C)C(O)C(C)(C)CO (centres unmarked) [2,2,4-Trimethyl-1,3-pentanediol] | > 90
13 | CCC(=O)O[C@@H](O[P@](=O)(CCCCc1ccccc1)CC(=O)N1C[C@H](C2CCCCC2)C[C@H]1C(=O)O)C(C)C [Fosinopril sodium] | > 50
14 | CO[Si](OC)(OC)c1ccccc1 [Trimethoxyphenylsilane] | > 90
15 | CCCN1C[C@H](CSC)C[C@@H]2c3cccc4[nH]cc(c34)C[C@H]21 [Pergolide methanesulfonate] | > 50
16 | C/C(=C(\CCOP(=O)(O)O)SC(=O)c1ccccc1)N(C=O)Cc1cnc(C)nc1N [Benfotiamine] | > 20
17 | C[C@@H]1CN(c2c(F)c(F)c3c(=O)c(C(=O)O)cn(C4CC4)c3c2F)C[C@H](C)N1 [Orbifloxacin] | > 50
18 | Cc1cc(C(C#N)c2ccc(Cl)cc2)c(Cl)cc1NC(=O)c1cc(I)cc(I)c1O (centres unmarked) [Closantel] | 25
19 | C[C@@H](O)[C@@H]1NC(=O)[C@H](CCCCN)NC(=O)[C@@H](Cc2c[nH]c3ccccc23)NC(=O)[C@H](Cc2ccccc2)NC(=O)[C@@H](NC(=O)[C@H](N)Cc2ccccc2)CSSC[C@@H](C(=O)N[C@H](CO)[C@@H](C)O)NC1=O [Octreotide] | > 50
20 | C(=C/c1ccccc1)/c1ccccc1 [cis-Stilbene] | > 90
21 | O=C[C@H](O)[C@@H](O)[C@H](O)[C@H](O)CO (racemic) [DL-Glucose] | > 50
22 | Cc1ccccc1N=O [2-Nitrosotoluene] | > 90

Row | SMILES | CC50 at 24 h [µM]
23 | Cc1cccc(C)c1NC(=O)/N=C1\CCCN1C [Xilobam] | > 50
24 | Cc1ccc(N)cc1[N+](=O)[O-] [4-Methyl-3-nitroaniline] | > 90
25 | O=C(O)/C=C\C(=O)Nc1ccc(S(=O)(=O)Nc2nccs2)cc1 [Maleylsulfathiazole] | > 50
26 | N#C/N=C1\SCCN1Cc1ccc(Cl)nc1 [Thiacloprid] | > 90
27 | O=C(O)CCS [3-Mercaptopropanoic acid] | > 90
28 | Cc1cc(C)c(NC(=O)CN(CC(=O)O)CC(=O)O)c(C)c1Br [Mebrofenin] | > 50
29 | CC(=O)NCCO [N-(2-Hydroxyethyl)acetamide] | > 90
30 | O=[N+]([O-])c1cccc(C(F)(F)F)c1 [1-Nitro-3-(trifluoromethyl)benzene] | > 90
31 | C=C[C@H]1CN2CC[C@H]1C[C@H]2[C@H](OC(=O)OCC)c1ccnc2ccc(OC)cc12 [Quinine ethyl carbonate] | > 50
32 | CCCCOCCOC(=O)COc1cc(Cl)c(Cl)cc1Cl [2,4,5-T-butotyl] | > 90
33 | C[N+](C)(C)CCCCCCCCCC[N+](C)(C)C [Decamethonium bromide] | > 50
34 | c1ccc(-c2nc[nH]c2-c2ccccc2)cc1 [4,5-Diphenylimidazole] | > 50
35 | OCc1ccccc1O [Salicyl alcohol] | > 50
36 | CCc1cccc(C)c1 [3-Ethyltoluene] | > 90
37 | O=C(CCS)OCC(COC(=O)CCS)(COC(=O)CCS)COC(=O)CCS [3-[(3-Sulfanylpropanoyl)oxy]-2,2-bis{[(3-sulfanylpropanoyl)oxy]methyl}propyl 3-sulfanylpropanoate] | > 90
38 | Cc1cnc(NC(=O)C2=C(O)c3ccccc3S(=O)(=O)N2C)s1 [Meloxicam] | > 90
39 | COC(C)(C)CC(C)=O [4-Methoxy-4-methyl-2-pentanone] | > 90
40 | CCCCC [Pentane] | > 90
41 | CC(=O)OC(C)(C)C1CC=C(C)CC1 (stereo not drawn) [alpha-Terpinyl acetate] | > 90
42 | N#CC(Br)(Br)C(N)=O [2,2-Dibromo-3-nitrilopropionamide] | > 90
43 | CCCCCCOC(=O)CCC [Hexyl butyrate] | > 90
44 | COC(C)CCO (centres unmarked) [3-Methoxybutan-1-ol] | > 90

Row | SMILES | CC50 at 24 h [µM]
45 | CCCN(CCC)C(=O)CN [C.I. Solvent Black 5] | 3.55
46 | Clc1ccc(C(Cl)(Cl)Cl)cc1 [4-Chlorobenzotrichloride] | > 90
47 | CC1CCN(CCCC(=O)c2ccc(F)cc2)CC1 [Methylperone] | > 50
48 | C1=Cc2cccc3cccc1c23 [Acenaphthylene] | > 90
49 | CC(C)c1nnc2ccc(-c3ocnc3-c3cc(F)ccc3F)cn12 [CP-863187] | > 90
50 | CN(C)CCCOc1nn(Cc2ccccc2)c2ccccc12 [Benzydamine hydrochloride] | 6.35
51 | CN1CCN(CCCN2c3ccccc3Sc3ccccc32)CC1 [Perazine] | 16.5
52 | CNC(=O)Oc1cccc2ccccc12 [Carbaryl] | > 90
53 | CO [Methanol] | > 90
54 | CC(=O)C(=O)CC(C)C [5-Methyl-2,3-hexanedione] | > 90
55 | COC(=O)c1ccccc1OC [Methyl 2-methoxybenzoate] | > 90
56 | C=C(C)[C@@H]1CCC2=CC(=O)C[C@@H](C)[C@]2(C)C1 [Nootkatone] | > 90
57 | CC(/C=C1\SC(=S)N(CC(=O)O)C1=O)=C\c1ccccc1 [Epalrestat] | 42.6
58 | O=C(NNCNNC(=O)c1ccncc1)c1ccncc1 [Metazide] | > 50
59 | FC1(F)C(F)(F)C(F)(F)C2(F)C(F)(F)C(F)(F)C(F)(F)C(F)(F)C2(F)C1(F)F (centres unmarked) [Perflunafene] | > 50
60 | O=C(/C=C/C=C/c1ccc2c(c1)OCO2)N1CCCCC1 [Piperine] | > 90
61 | O=C(OCC(COC(=O)c1ccccc1)(COC(=O)c1ccccc1)COC(=O)c1ccccc1)c1ccccc1 [2,2-Bis[(benzoyloxy)methyl]dibenzoate propanediol] | > 90
62 | CN(C)CCC(c1ccccc1)c1ccccn1 (centres unmarked) [Pheniramine maleate] | > 90
63 | CCCCCCCCCCCCCCCCCCO [1-Octadecanol] | > 50
64 | CC1(C)C(=O)N(Br)C(=O)N1Cl [3-Bromo-1-chloro-5,5-dimethylhydantoin] | > 90
65 | Nc1cc(Cl)cc(Cl)c1 [3,5-Dichloroaniline] | > 90
66 | NC(=O)c1ccc(N)cc1 [4-Aminobenzamide] | > 90

Same assay, conditions: rat, gh3-tre-luc cells, AC50 (uM) modified / 1000, Tox21_110001=Tox21_111804; viability, 1 nM T3 present, 24 h

Row | SMILES | CC50 at 24 h [µM]
67 | CC(C)(N)Cc1ccc(Cl)cc1 [Chlorphentermine hydrochloride] | > 50

Same assay, conditions: rat, gh3-tre-luc cells, AC50 (uM) modified / 1000, Tox21_110001=Tox21_111946; viability, 1 nM T3 present, 24 h

Row | SMILES | CC50 at 24 h [µM]
68 | COP(=S)(OC)Oc1ccc(S(=O)(=O)N(C)C)cc1 [Famphur] | > 50

Same assay, conditions: rat, gh3-tre-luc cells, AC50 (uM) modified / 1000, Tox21_110001=Tox21_112153; viability, 1 nM T3 present, 24 h

Row | SMILES | CC50 at 24 h [µM]
69 | CCC(C)(S(=O)(=O)CC)S(=O)(=O)CC [Sulfonethylmethane] | > 50

Same assay, conditions: rat, gh3-tre-luc cells, AC50 (uM) modified / 1000, Tox21_110001=Tox21_113357; viability, 1 nM T3 present, 24 h

Row | SMILES | CC50 at 24 h [µM]
70 | CCOP(=S)(OCC)O/N=C(\C#N)c1ccccc1 [Phoxim] | > 50

Same assay, conditions: rat, gh3-tre-luc cells, AC50 (uM) modified / 1000, Tox21_110001=Tox21_200129; viability, 1 nM T3 present, 24 h

Row | SMILES | CC50 at 24 h [µM]
71 | SCc1ccccc1 [Benzenemethanethiol] | > 90

Same assay, conditions: rat, gh3-tre-luc cells, AC50 (uM) modified / 1000, Tox21_110001=Tox21_200635; viability, 1 nM T3 present, 24 h

Row | SMILES | CC50 at 24 h [µM]
72 | N#CCCC#N [Succinonitrile] | > 90

Same assay, conditions: rat, gh3-tre-luc cells, AC50 (uM) modified / 1000, Tox21_110001=Tox21_201798; viability, 1 nM T3 present, 24 h

Row | SMILES | CC50 at 24 h [µM]
73 | O=P(OCC(Br)CBr)(OCC(Br)CBr)OCC(Br)CBr (centres unmarked) [Tris(2,3-dibromopropyl) phosphate] | 30.4

Same assay, conditions: rat, gh3-tre-luc cells, AC50 (uM) modified / 1000, Tox21_110001=Tox21_202359; viability, 1 nM T3 present, 24 h

Row | SMILES | CC50 at 24 h [µM]
74 | Nc1ccc(-c2ccc(N)cc2)cc1 [Benzidine] | > 90

Same assay, conditions: rat, gh3-tre-luc cells, AC50 (uM) modified / 1000, Tox21_110001=Tox21_300718; viability, 1 nM T3 present, 24 h

Row | SMILES | CC50 at 24 h [µM]
75 | CCN(CC)c1nc(C)cc(OP(=S)(OC)OC)n1 [Pirimiphos-methyl] | > 90

Same assay, conditions: rat, gh3-tre-luc cells, AC50 (uM) modified / 1000, Tox21_110001=Tox21_301580; viability, 1 nM T3 present, 24 h

Row | SMILES | CC50 at 24 h [µM]
76 | CCOP(=S)(OCC)O/N=C(\C#N)c1ccccc1 [Phoxim] | > 90

Same assay, conditions: rat, gh3-tre-luc cells, AC50 (uM) modified / 1000, Tox21_110001=Tox21_301581; viability, 1 nM T3 present, 24 h

Row | SMILES | CC50 at 24 h [µM]
77 | O=S1OC[C@@H]2[C@H](CO1)[C@]1(Cl)C(Cl)=C(Cl)[C@@]2(Cl)C1(Cl)Cl (some centres unmarked) [Endosulfan I] | 69.4

Same assay, conditions: rat, gh3-tre-luc cells, AC50 (uM) modified / 1000, Tox21_110001=Tox21_301907; viability, 1 nM T3 present, 24 h

Row | SMILES | CC50 at 24 h [µM]
78 | COP(=S)(OC)Oc1ccc(S(=O)(=O)N(C)C)cc1 [Famphur] | > 90

Same assay, conditions: rat, gh3-tre-luc cells, AC50 (uM) modified / 1000, Tox21_110001=Tox21_302279; viability, 1 nM T3 present, 24 h

Row | SMILES | CC50 at 24 h [µM]
79 | O=C(O)c1ccccc1C(=O)Nc1cccc2ccccc12 [Naptalam] | > 90

Same assay, conditions: rat, gh3-tre-luc cells, AC50 (uM) modified / 1000, Tox21_110001=Tox21_302967; viability, 1 nM T3 present, 24 h

Row | SMILES | CC50 at 24 h [µM]
80 | O=P(OCC(Br)CBr)(OCC(Br)CBr)OCC(Br)CBr (centres unmarked) [Tris(2,3-dibromopropyl) phosphate] | 54.5
